These results are taken from patent US5830667A, “Human P450 IID6 cytochrome-derived peptide fragments, anti-peptide fragment antibodies, applications thereof in the diagnosis of autoimmune hepatitis” (Institut National de la Sante et de la Recherche …, priority 1991, dated 1998).

The test system of data set [1] is anti-LKM antibodies (LKM-positive sera). The experiment in a line: ELISA test of cytochrome P450 IID6 peptides with human sera. It is filed as binding. As to conditions: for number of patients whose sera recognize the peptide: tested by ELISA and immunoblotting, 15 patients. The method, then: The peptides are redissolved in a PBS buffer, pH 7.4 and diluted in order to obtain concentrations of 0.1, 0.2, 0.5 and 1 μg/ml; 100 μl per well of each peptide solution are incubated overnight in microtitre plates containing 96 wells (IMMULON2a commercially available ELISAPLATE, Dynatech, Poly-Labo, Paris--FRANCE). The ELISA analysis is then performed as described in GUEGUEN M. et al., (Biochem. Biophys. Res. Commun., 1989, 159, 542), using the various human sera described above. The first antibodies are tested at dilutions ranging from 1/100 to 1/12,800. The alkaline phosphatase-conjugated goat anti-human IgG antibody is used as second antibody at a dilution of 1/1000. The test is developed by adding 100 μl of p-nitrophenyl phosphate at a concentration of 1 mg/ml in a 0.05M NaCO3 buffer, pH 9.8 and 0.001M MgCl2. The results read after incubating for 30 minutes at room temperature are considered positive when they are higher by a factor of 2 compared with the control serum.
In general terms: ELISA stands for enzyme-linked immunosorbent assay.

The test system of data set [2] is anti-LKM autoantibodies. The experiment in a line: Peptide fragments used as diagnostic reagents for autoimmune hepatitis. It is filed as binding, human.
The subject of data set [3] is anti-LKM antibodies (LKM-positive sera). The experiment in a line: Immunoblotting of cytochrome P450 IID6 peptides with LKM-positive sera. It is filed as binding, human. The method, then:
(§1) The expression of the fusion proteins from the cDNA constructs is described by STANLEY (Nucleic Acids Research, 1983, 11, 4077). 100 μl culture samples, for each fusion protein, are subjected to electrophoresis on an 8-20% SDS-polyacrylamide gel, transferred onto nitrocellulose and analysed by the immunoblot technique.
(§2) The first antibodies used for the immunoblot method are:
(§3) 1) sera from patients responding positively to the anti-LKM antibodies;
(§4) Depending on the origin of the first antibody, the second antibody is either a peroxydase-goat anti-human IgG conjugate, or a peroxydase-goat anti-mouse IgG conjugate (Biosys), at a dilution of 1/1000.
The different peptides and especially peptides 254-271 (peptide of formula II) , 264-281 and 410-429 (peptide of formula X), are coupled to BSA via their free NH2 -terminal group, using glutaraldehyde (see especially E. HARLOW and D. LANE, 1988, Antibodies, A laboratory manual, Cold Spring Harbor Laboratory).
Background: In western blotting, separated proteins are transferred to a membrane and probed.

Data set [4] shares this test system. The experiment in a line: Immunoblot analysis of the fusion proteins P450 IID6/β-gal with LKM-positive sera. It is filed as binding, human. The following applies: eleven sera tested; FIG. 2. How it is done:
b) Expression and immunoblot analysis of the fusion proteins obtained from the various constructs of pEX-627-LKMHC5 and pEX-627-LKMC1/BamHI.
as §1, §2, §3, §4
Rat liver and human liver microsomes and β-galactosidase, expressed by the plasmid pEX-627 not comprising the P450 DNA insert, are included on the same gels as positive controls and negative control respectively.

Ends that are not written are not given here.

With “EKPYPEHFLDAQGHFVKPEA [Peptide of formula X, amino acids 410-429 of human cytochrome P450 IID6]”, in data set [1], the “number of patients whose sera recognize the peptide” value (shortened to “number”) was 2 patients/15. For the same molecule, in data set [2], the “positive response in patients suffering from autoimmune hepatitis” value is given as “positive response in most patients”.

Turning to “GMTHMTSRDIGVQGFRI [Peptide of formula IX, Gly-Met-Thr-His-Met-Thr-Ser-Arg-Asp-Ile-Gly-Val-Gln-Gly-Phe-Arg-Ile]”, the “number” value in data set [1] is on record as 1 patients/15.

Take “LLTEHRMTWDPAQPPRDL [Peptide of formula II, Leu-Leu-Thr-Glu-His-Arg-Met-Thr-Trp-Asp-Pro-Ala-Gln-Pro-Pro-Arg-Asp-Leu]”: the “recognized by LKM-positive sera when tested by immunoblotting” value in data set [3] is on record as “recognized by all the LKM-positivesera”. Further, in data set [1], the “recognized by LKM-positive sera when tested by ELISA” value is on record as “recognized by all the LKM-positivesera”.

For the molecule “MILHPDVQRRVQQEIDDVIGQVRRPEMGDQA [Peptide of formula Va]”, the “number” value in data set [1] amounted to 8 patients/15. Besides, the “positive response in patients suffering from autoimmune hepatitis” value in data set [2] is “positive response in most patients”.

B1: LKMC1/BamHI: fusion protein from EcoRI-BamHI fragment of LKMC1, cDNA clone encoding rat cytochrome P450 db2, in plasmid pEX-627 (protein)
chain: MGLLIGDDLWAVVIFTAIFLLLVDLVHRHKFWTAHYPPGPVPLPGLGNLLQVDFENMPYSLYKLRSRYGDVFSLQIAWKPVVVINGLKAVRELLVTYGEDTADRPLLPIYNHLGYGNKSKGVVLAPYGPEWREQRRFSVSTLRDFGVGKKSLEQWVTEEAGHLCDTFAKEAEHPFNPSILLSKAVSNVIASLVYARRFEYEDPFFNRMLKTLKESFGEDTGFMAEVLNAIPILLQIPGLPGKVFPKLNSFIALVDKMLIEHKKSWD
Take B1: the “recognition of fusion protein by LKM-positive sera on the immunoblots” value in data set [4] is given as “None of the sera of the patients tested recognizes”.
